The test system of the first assay is HCV 1b-377-neo replicon cells. Description: HCV replicon assay, HCV 1b-377-neo replicon cells (1b FRET). As to conditions: HCV 1b-377-neo replicon cells; HCV 1b genotype. Type of assay: cell-based, Hepatitis C virus genotype 1b. In short, it runs like this:
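Compounds were tested in genotype 1b subgenomic replicon cells carrying a neomycin marker, alongside a matched replicon line with an NS5A Y2065H substitution that confers resistance to a reference NS5A inhibitor.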
A general note: A replicon is a self-replicating genome or part of one, used to study replication in cells.
For `CCN(CC)[C@@H](C(=O)N1CCC[C@H]1c1ncc(-c2ccc(-c3ccc(-c4cnc([C@@H]5CCCN5C(=O)[C@@H](C(C)C)N(CC)CC)[nH]4)cc3)cc2)[nH]1)C(C)C` [Example M10, (2R,2′R)-1,1′-(4,4′-biphenyldiylbis(1H-imidazole-5,2-diyl(2S)-2,1-pyrrolidinediyl))bis(N,N-diethyl-3-methyl-1-oxo-2-butanamine)], the “EC50 range against HCV 1b (Table 2, Range)” value is reported as “>A”.

The assay is the same for the next values; noted with them: HCV 1b-377-neo replicon cells; HCV 1b genotype; read-out: EC50 range against HCV 1b (Table 2, Range).
Broadly, the EC50 is the concentration giving half of the maximal effect. As to `CCN(CC)[C@@H](C(=O)N1CCC[C@H]1c1ncc(-c2ccc(-c3ccc(-c4cnc([C@@H]5CCCN5C(=O)C5(NC(=O)OC)CCCC5)[nH]4)cc3)cc2)[nH]1)c1ccccc1` [Example M42, methyl (1-(((2S)-2-(5-(4′-(2-((2S)-1-((2R)-2-(diethylamino)-2-phenylacetyl)-2-pyrrolidinyl)-1H-imidazol-5-yl)-4-biphenylyl)-1H-imidazol-2-yl)-1-pyrrolidinyl)carbonyl)cyclopentyl) carbamate], the EC50 lay within 1 to 99 nM.

Still in this assay, the particulars now being: Hepatitis C virus, HCV 1b-377-neo replicon cells; HCV 1b genotype; read-out: EC50 range against HCV 1b (Table 2, Range).
Turning to `COC(=O)N[C@@H](C(=O)N1CCC[C@H]1c1ncc(-c2ccc(-c3ccc(-c4cnc([C@@H]5CCCN5C(=O)CCN(C)C)[nH]4)cc3)cc2)[nH]1)c1ccccc1` [Example 84-15, methyl ((1R)-2-((2S)-2-(5-(4′-(2-((2S)-1-(N,N-dimethyl-beta-alanyl)-2-pyrrolidinyl)-1H-imidazol-5-yl)-4-biphenylyl)-1H-imidazol-2-yl)-1-pyrrolidinyl)-2-oxo-1-phenylethyl)carbamate], the EC50 lay in the range of 1 to 99 nM. On the same count and under the same terms, in the case of `COC(=O)N[C@@H](C(=O)N1CCC[C@H]1c1ncc(-c2ccc(-c3ccc(-c4cnc([C@@H]5CCCN5C(=O)[C@H](OC(C)=O)c5ccccc5)[nH]4)cc3)cc2)[nH]1)c1ccccc1` [Example 84-82, (1R)-2-((2S)-2-(5-(4′-(2-((2S)-1-((2R)-2-((methoxycarbonyl)amino)-2-phenylacetyl)-2-pyrrolidinyl)-1H-imidazol-5-yl)-4-biphenylyl)-1H-imidazol-2-yl)-1-pyrrolidinyl)-2-oxo-1-phenylethyl acetate] it was 0.001 to 0.999 nM; in that of `CCN(CC)[C@@H](C(=O)N1CCC[C@H]1c1ncc(-c2ccc(-c3ccc(-c4cnc([C@@H]5CCCN5C(=O)[C@H]5CC[C@@H](NC(=O)OC)C5)[nH]4)cc3)cc2)[nH]1)c1ccccc1` [cj-60, methyl ((1R,3S)-3-(((2S)-2-(5-(4′-(2-((2S)-1-((2R)-2-(diethylamino)-2-phenylacetyl)-2-pyrrolidinyl)-1H-imidazol-5-yl)-4-biphenylyl)-1H-imidazol-2-yl)-1-pyrrolidinyl)carbonyl)cyclopentyl)carbamate], 0.001 to 0.999 nM. `CN(C)[C@@H](C(=O)N1CCC[C@H]1c1ncc(-c2ccc(-c3ccc(-c4cnc([C@@H]5CCCN5C(=O)[C@H]5CCC(=O)N5)[nH]4)cc3)cc2)[nH]1)c1ccccc1` [Example 94-2, (5R)-5-(((2S)-2-(5-(4′-(2-((2S)-1-((2R)-2-(dimethylamino)-2-phenylacetyl)-2-pyrrolidinyl)-1H-imidazol-5-yl)-4-biphenylyl)-1H-imidazol-2-yl)-1-pyrrolidinyl)carbonyl)-2-pyrrolidinone]: the EC50 was in the range of 1 to 99 nM. On to `COC(=O)N[C@@H](Cc1cncn1C)C(=O)N1CCC[C@H]1c1ncc(-c2ccc(-c3ccc(-c4cnc([C@@H]5CCCN5C(=O)[C@@H](NC(=O)OC)[C@@H](C)OC)[nH]4)cc3)cc2)[nH]1` [cj-47, methyl ((1S)-2-((2S)-2-(5-(4′-(2-((2S)-1-((2S,3R)-3-methoxy-2-((methoxycarbonyl)amino)butanoyl)-2-pyrrolidinyl)-1H-imidazol-5-yl)-4-biphenylyl)-1H-imidazol-2-yl)-1-pyrrolidinyl)-1-((1-methyl-1H-imidazol-5-yl)methyl)-2-oxoethyl)carbamate], for which the EC50 fell in the range of 1 to 99 nM.

Turning to `CC(C)[C@H](NC(=O)OCCF)C(=O)N1CCC[C@H]1c1ncc(-c2ccc(-c3ccc(-c4cnc([C@@H]5CCCN5C(=O)[C@@H](NC(=O)OCCF)C(C)C)[nH]4)cc3)cc2)[nH]1` [OL-3, 2-fluoroethyl ((1S)-1-(((2S)-2-(4-(4′-(2-((2S)-1-((2S)-2-(((2-fluoroethoxy)carbonyl)amino)-3-methylbutanoyl)-2-pyrrolidinyl)-1H-imidazol-4-yl)-4-biphenylyl)-1H-imidazol-2-yl)-1-pyrrolidinyl)carbonyl)-2-methylpropyl)carbamate], the half-maximal effective concentration (EC50) lay within 1 to 99 nM.

With `COC(=O)N[C@@H](C(=O)N1CCC[C@H]1c1ncc(-c2ccc(-c3ccc(-c4cnc([C@@H]5CCCN5C(=O)C(c5ccccc5)c5ccccc5)[nH]4)cc3)cc2)[nH]1)c1ccccc1` [Example 84-38, methyl ((1R)-2-((2S)-2-(5-(4′-(2-((2S)-1-(diphenylacetyl)-2-pyrrolidinyl)-1H-imidazol-5-yl)-4-biphenylyl)-1H-imidazol-2-yl)-1-pyrrolidinyl)-2-oxo-1-phenylethyl)carbamate], the 50% effective concentration (EC50) was 0.001 to 0.999 nM.

For `COC(=O)N[C@@H](C)C(=O)N1CCC[C@H]1c1ncc(-c2ccc(-c3ccc(-c4cnc([C@@H]5CCCN5[C@@](C)(C=O)NC(=O)OC)[nH]4)cc3)cc2)[nH]1` [Example M17, methyl ((1S)-1-((2S)-2-(5-(4′-(2-((2S)-1-(N-(methoxycarbonyl)-L-alanyl)-2-pyrrolidinyl)-1H-imidazol-5-yl)-4-biphenylyl)-1H-imidazol-2-yl)-1-pyrrolidinyl)-1-methyl-2-oxoethyl)carbamate], the EC50 was in the range of 100 to 999 nM. Regarding `O=C(N[C@@H](C(=O)N1CCC[C@H]1c1ncc(-c2ccc(-c3ccc(-c4cnc([C@@H]5CCCN5C(=O)[C@@H]5CCCO5)[nH]4)cc3)cc2)[nH]1)c1ccccc1)C1CCOCC1` [Example 115, N-((1R)-2-oxo-1-phenyl-2-((2S)-2-(5-(4′-(2-((2S)-1-((2S)-tetrahydro-2-furanylcarbonyl)-2-pyrrolidinyl)-1H-imidazol-5-yl)-4-biphenylyl)-1H-imidazol-2-yl)-1-pyrrolidinyl)ethyl) tetrahydro-2H-pyran-4-carboxamide], the EC50 is 0.001 to 0.999 nM.

As to `CCC(=O)N[C@H](C(=O)N1CCC[C@H]1c1nc(-c2ccc(-c3ccc(-c4c[nH]c([C@@H]5CCCN5C(=O)[C@@H](NC(=O)CC)C(C)C)n4)cc3)cc2)c[nH]1)C(C)C` [Example F61, N-((1S)-2-methyl-1-(((2S)-2-(4-(4′-(2-((2S)-1-((2S)-3-methyl-2-(propionylamino)butanoyl)-2-pyrrolidinyl)-1H-imidazol-4-yl)-4-biphenylyl)-1H-imidazol-2-yl)-1-pyrrolidinyl)carbonyl)propyl)propanamide], the concentration for a half-maximal effect (EC50) lay within 1 to 99 nM.

Consider `COC(=O)N[C@@H](C(=O)N1CCC[C@H]1c1nc(-c2ccc(-c3ccc(-c4cnc([C@@H]5CC6CCCCC6N5C(=O)[C@H](NC(=O)OC)c5ccccc5)[nH]4)cc3)cc2)c[nH]1)c1ccccc1` (relative stereo) [Example F8, methyl rel-((1R)-2-((2S)-2-(4-(4′-(2-((2S)-1-((2R)-2-((methoxycarbonyl)amino)-2-phenylacetyl)octahydro-1H-indol-2-yl)-1H-imidazol-5-yl)-4-biphenylyl)-1H-imidazol-2-yl)-1-pyrrolidinyl)-2-oxo-1-phenylethyl)carbamate], for which the EC50 is 0.001 to 0.999 nM.

The values above are taken from patent publication US8574563B2 (Bristol-Myers Squibb Company, priority 2006, dated 2013).
